Test system: RAW 264.7 cells
Test: Quantitative cell-permeability of FITC-labeled aMTD- or rPeptide-fused CRA recombinant proteins by flow cytometry
Type: cell-based
Conditions: for Relative Ratio to aMTD AVE: cell-permeability of rPeptide relative to the average of 240 aMTDs
Text: The aMTDs and rPeptides were fluorescently labeled and compared based on the critical factors for cell-permeability by using flow cytometry and confocal laser scanning microscopy (FIG. 5 to 8). The cellular uptake of the peptide-fused non-functional cargo recombinant proteins could quantitatively be evaluated in flow cytometry, while confocal laser scanning microscopy allows intracellular uptake to be assessed visually. The analysis included recombinant proteins fused to a negative control [rP38] that has opposite characteristics (hydrophilic and aromatic sequence: YYNQSTCGGQCY) to the aMTDs (hydrophobic and aliphatic sequences). Relative cell-permeability (relative fold) of aMTDs to the negative control was also analyzed (TABLE 39 and FIG. 9).
Geometric means of negative control (histidine-tagged rP38-fused CRA recombinant protein) subtracted by that of naked protein (histidine-tagged CRA protein) lacking any peptide (rP38 or aMTD) was standardized as relative fold of 1.
For quantitative cell-permeability, the aMTD- or rPeptide-fused recombinant proteins were conjugated to fluorescein isothiocyanate (FITC) according to the manufacturer's instructions (Sigma-Aldrich, St. Louis, Mo.). RAW 264.7 cells were treated with 10 μM FITC-labeled recombinant proteins for 1 hour at 37° C., washed three times with cold PBS, treated with 0.25% tripsin/EDTA (Sigma-Aldrich, St. Louis, Mo.) for 20 minutes at 37° C. to remove cell-surface bound proteins. Cell-permeability of these recombinant proteins were analyzed by flow cytometry (Guava, Millipore, Darmstadt, Germany) using the FlowJo cytometric analysis software (FIG. 5 to 6). The relative cell-permeability of aMTDs were measured and compared with the negative control (rP38) and reference hydrophobic CPPs (MTM12 and MTD85) (TABLE 47).

[1] = cell-permeability of aMTD-fused CRA recombinant protein relative to negative control rP38 (A type)
[2] = cell-permeability relative to reference CPP MTD85 (C type)
[3] = cell-permeability relative to reference CPP MTM12 (B type)
[4] = cell-permeability of aMTD-fused CRA recombinant protein relative to negative control (A: rP38)
[5] = cell-permeability of aMTD-fused CRA recombinant protein relative to reference CPP (B: MTM12)
[6] = cell-permeability of aMTD-fused CRA recombinant protein relative to reference CPP (C: MTD85)

Substance | Relative Ratio (Fold) A [1] [Fold] | Relative Ratio (Fold) C [2] [Fold] | Relative Ratio (Fold) B [3] [Fold] | Relative Ratio to aMTD AVE | Relative Ratio (Fold) A [4] [Fold] | Relative Ratio (Fold) B [5] [Fold] | Relative Ratio (Fold) C [6] [Fold]
22 (AVVLVPVLAAAP; Advanced Macromolecule Transduction Domain (aMTD) Sequences for Improvement of Cell-Permeability) [compound 22] | 3.1 | 1.1 | 2.1 |  |  |  | 
23 (VVLVLPAAAAVP; Advanced Macromolecule Transduction Domain (aMTD) Sequences for Improvement of Cell-Permeability) [compound 23] | 4.0 | 1.3 | 2.6 |  |  |  | 
42 (VAALPVVAVVAP; Advanced Macromolecule Transduction Domain (aMTD) Sequences for Improvement of Cell-Permeability) [compound 42] | 2.5 | 0.8 | 1.7 |  |  |  | 
44 (ALAVPVALLVAP; Advanced Macromolecule Transduction Domain (aMTD) Sequences for Improvement of Cell-Permeability) [compound 44] | 1.6 | 0.5 | 1.1 |  |  |  | 
49 (VVPAAPAVPVVP) [compound 49] |  |  |  | 0.18 |  |  | 
57 (QNNCNTSSQGGG) [compound 57] |  |  |  | 0.06 |  |  | 
63 (AALLVPALVAVP; Advanced Macromolecule Transduction Domain (aMTD) Sequences for Improvement of Cell-Permeability) [compound 63] | 1.9 | 0.7 | 1.3 |  |  |  | 
81 (AALLPALAALLP; Advanced Macromolecule Transduction Domain (aMTD) Sequences for Improvement of Cell-Permeability) [compound 81] | 6.9 | 2.3 | 4.6 |  |  |  | 
101 (LVALAPVAAVLP; Advanced Macromolecule Transduction Domain (aMTD) Sequences for Improvement of Cell-Permeability) [compound 101] | 4.5 | 1.5 | 3.0 |  |  |  | 
102 (LALAPAALALLP; Advanced Macromolecule Transduction Domain (aMTD) Sequences for Improvement of Cell-Permeability) [compound 102] | 1.4 | 0.5 | 0.9 |  |  |  | 
103 (ALIAAPILALAP; Advanced Macromolecule Transduction Domain (aMTD) Sequences for Improvement of Cell-Permeability) [compound 103] | 2.1 | 0.7 | 1.4 |  |  |  | 
104 (AVVAAPLVLALP; Advanced Macromolecule Transduction Domain (aMTD) Sequences for Improvement of Cell-Permeability) [compound 104] | 7.3 | 2.5 | 4.9 |  |  |  | 
123 (AAIIVPAALLAP; Advanced Macromolecule Transduction Domain (aMTD) Sequences for Improvement of Cell-Permeability) [compound 123] | 2.9 | 1.0 | 2.0 |  |  |  | 
144 (VLAIVPAVALAP; Advanced Macromolecule Transduction Domain (aMTD) Sequences for Improvement of Cell-Permeability) [compound 144] | 8.8 | 3.0 | 5.9 |  |  |  | 
162 (AVVALPAALIVP; Advanced Macromolecule Transduction Domain (aMTD) Sequences for Improvement of Cell-Permeability) [compound 162] | 8.2 | 2.8 | 5.5 |  |  |  | 
163 (LALVLPAALAAP; Advanced Macromolecule Transduction Domain (aMTD) Sequences for Improvement of Cell-Permeability) [compound 163] | 4.1 | 1.4 | 2.4 |  |  |  | 
164 (LAAVLPALLAAP; Advanced Macromolecule Transduction Domain (aMTD) Sequences for Improvement of Cell-Permeability) [compound 164] | 8.2 | 2.8 | 5.5 |  |  |  | 
165 (ALAVPVALAIVP; Advanced Macromolecule Transduction Domain (aMTD) Sequences for Improvement of Cell-Permeability) [compound 165] |  |  |  |  | 19.8 | 13.2 | 6.7
204 (LIAALPAVAALP; Advanced Macromolecule Transduction Domain (aMTD) Sequences for Improvement of Cell-Permeability) [compound 204] | 2.2 | 0.8 | 1.5 |  |  |  | 
205 (ALALVPAIAALP; Advanced Macromolecule Transduction Domain (aMTD) Sequences for Improvement of Cell-Permeability) [compound 205] | 2.6 | 0.9 | 1.7 |  |  |  | 
224 (ILAAVPIALAAP; Advanced Macromolecule Transduction Domain (aMTD) Sequences for Improvement of Cell-Permeability) [compound 224] |  |  |  |  | 15.8 | 10.6 | 5.3
285 (AIVLLPAAVVAP; Advanced Macromolecule Transduction Domain (aMTD) Sequences for Improvement of Cell-Permeability) [compound 285] |  |  |  |  |  | 8.9 | 
363 (AVLAVAPALIVP; Advanced Macromolecule Transduction Domain (aMTD) Sequences for Improvement of Cell-Permeability) [compound 363] |  |  |  |  | 14.7 | 9.8 | 4.9
442 (ALAALVPAVLVP; Advanced Macromolecule Transduction Domain (aMTD) Sequences for Improvement of Cell-Permeability) [compound 442] |  |  |  |  |  | 13.6 | 
481 (AIAIAIVPVALP; Advanced Macromolecule Transduction Domain (aMTD) Sequences for Improvement of Cell-Permeability) [compound 481] |  |  |  |  | 34.3 | 23.0 | 11.6

From patent publication US10323063B2, “Advanced macromolecule transduction domain (aMTD) sequences for improvement of cell-permeability, polynucleotides encoding the same, method to identify the unique features of aMTDs comprising the same, method to develop the aMTD sequences comprising the same” (CELLIVERY THERAPEUTICS, INC., priority 2014, dated 2019)
